Data published in PMC3895464 (Bioorganic & medicinal chemistry, 2013).

Legend:
[1] = tested on: Apc10.1 cells; assay: Cell proliferation assay; assay type: cell-based, mice; conditions: Mus musculus, read-out: IC50 cell proliferation, Apc10.1, Has2 −
[2] = tested on: HT29 cells; assay: Cell proliferation assay; assay type: cell-based; conditions: Homo sapiens, HT-29, read-out: IC50 cell proliferation, HT29, Has2 −
[3] = tested on: HT29, HCA-7 and Apc10.1 cells; assay: Cell growth assays, IC50 ranges over the three cell lines; assay type: cell-based; conditions: read-out: IC50 values (tumor cell survival)
[4] = tested on: HCA-7 cells; assay: Cell proliferation assay; assay type: cell-based; conditions: Homo sapiens, HCA-7, read-out: IC50 cell proliferation, HCA-7, Has2 −
[5] = tested on: COX-2 and 5-LOX expression in HT29 cells; assay: COX-2 and 5-LOX expression in HT29 cells; assay type: cell-based, human; conditions: Figure 2B
[6] = tested on: pre-neoplastic Apc10.1 cells; assay: MTT assay on pre-neoplastic Apc10.1 cells; assay type: cell-based; conditions: Apc10.1, 24 h

| Compound | IC50 [1] | IC50 [2] | IC50 [3] | IC50 [4] | COX-2 and 5-LOX levels [5] | cytotoxic activity (MTT) [6] |
| --- | --- | --- | --- | --- | --- | --- |
| CC1(C)Cc2c(-c3ccccc3)c(-c3ccc(Cl)cc3)c(CC(=O)O)n2C1 [Licofelone, [6-(4-chlorophenyl)-2,2-dimethyl-7-phenyl-2,3-dihydro-1H-pyrrolizin-5-yl]acetic acid] | 45 ± 7.2 µM | 75 ± 8.3 µM | 45 to 75 µM | 48 ± 5.2 µM | substantial inhibition | – |
| CC(C)(C)C1=CC(=NNC(=O)c2cccnc2)C=C(C(C)(C)C)C1=O [BQNH, N’- (3,5-di-tert-butyl-4-oxocyclohexa-2,5-dienylidene) nicotinohydrazide] | – | – | 6.5 to 11 µM | – | substantial inhibition | reasonable cytotoxic activity |
| Cc1ccc(-c2cc(C(F)(F)F)nn2-c2ccc(S(N)(=O)=O)cc2)cc1 [Celecoxib, reference compound] | – | – | 2 to 4.2 µM | – | – | – |
| CC(C)(C)C1=CC(=NNC(=O)c2ccccc2)C=C(C(C)(C)C)C1=O [BQBH, N’- (3,5-di-tert-butyl-4-oxocyclohexa-2,5-dienylidene) benzohydrazide] | – | – | 12 to 20 µM | – | substantial inhibition | – |
| CC(C)(C)C1=CC(=NNC(=O)c2ccncc2)C=C(C(C)(C)C)C1=O [BQIH, N’- (3,5-di-tert-butyl-4-oxocyclohexa-2,5-dienylidene) isonicotinohydrazide] | – | – | 12 to 20 µM | – | substantial inhibition | – |
